Assay [1] has as its target T1, USP7 (Homo sapiens, UniProt Q93009). Nature of the assay: Ub-AMC assay (USP7 assay). The class given is biochemical. Also noted: fused on or other part: His tag from pET28aLIC; removed by thrombin for the catalytic domain, no removal step given for the full length. As to conditions: USP7 assay. On the procedure:
USP7 and mutants were tested for their activity in Ubiquitin-AMC assay in presence or absence of inhibitors. […] For the same assay USP7 full length WT and Q351 mutant were used at 50 nM. […] The reaction was incubated 30 min at room temperature prior to the addition of 2 uM Ubiquitin-AMC (Boston Biochem) substrate. […] The calculated initial rate values were plotted against inhibitor concentrations to determine IC50s. All the experimental data were plotted using Prism GraphPad. FIG. 2A illustrates the structure guided optimization for the inhibition of USP7.
ND refers to not disclosed.
Target sequence in this assay (Q93009 208-560 limits assumed): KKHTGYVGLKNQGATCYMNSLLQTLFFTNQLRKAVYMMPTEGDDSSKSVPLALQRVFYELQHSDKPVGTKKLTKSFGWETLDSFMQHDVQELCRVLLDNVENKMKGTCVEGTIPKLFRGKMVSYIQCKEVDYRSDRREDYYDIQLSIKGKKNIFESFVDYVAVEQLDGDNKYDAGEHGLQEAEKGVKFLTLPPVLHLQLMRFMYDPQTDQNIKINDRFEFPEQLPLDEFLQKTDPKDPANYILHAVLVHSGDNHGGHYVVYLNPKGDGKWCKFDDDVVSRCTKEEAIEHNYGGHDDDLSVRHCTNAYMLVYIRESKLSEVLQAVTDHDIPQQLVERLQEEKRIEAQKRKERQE

Assay [2] concerns the target T1, USP7. Nature of the assay: Isothermal titration calorimetry, binding affinity of protein/ligand. Also noted: made in house; host or cells: E. coli BL21 (DE3). As to conditions: ITC at 20° C. The protocol:
The binding affinity of protein/ligand was measured by adding 0.02 mM protein in cell and titrating with 0.2 mM ligand in the syringe using an Auto-ITC200 microcalorimeter (Malvern) at 20° C. (FIG. 2C). Proteins and ligands were prepared within ITC buffer containing 20 mM HEPES pH 7.5, 150 mM NaCl, and 2% DMSO. The data were fit using Origin 7.0 software.
Target sequence in this assay (Q93009 whole entry, the tested form may be a part): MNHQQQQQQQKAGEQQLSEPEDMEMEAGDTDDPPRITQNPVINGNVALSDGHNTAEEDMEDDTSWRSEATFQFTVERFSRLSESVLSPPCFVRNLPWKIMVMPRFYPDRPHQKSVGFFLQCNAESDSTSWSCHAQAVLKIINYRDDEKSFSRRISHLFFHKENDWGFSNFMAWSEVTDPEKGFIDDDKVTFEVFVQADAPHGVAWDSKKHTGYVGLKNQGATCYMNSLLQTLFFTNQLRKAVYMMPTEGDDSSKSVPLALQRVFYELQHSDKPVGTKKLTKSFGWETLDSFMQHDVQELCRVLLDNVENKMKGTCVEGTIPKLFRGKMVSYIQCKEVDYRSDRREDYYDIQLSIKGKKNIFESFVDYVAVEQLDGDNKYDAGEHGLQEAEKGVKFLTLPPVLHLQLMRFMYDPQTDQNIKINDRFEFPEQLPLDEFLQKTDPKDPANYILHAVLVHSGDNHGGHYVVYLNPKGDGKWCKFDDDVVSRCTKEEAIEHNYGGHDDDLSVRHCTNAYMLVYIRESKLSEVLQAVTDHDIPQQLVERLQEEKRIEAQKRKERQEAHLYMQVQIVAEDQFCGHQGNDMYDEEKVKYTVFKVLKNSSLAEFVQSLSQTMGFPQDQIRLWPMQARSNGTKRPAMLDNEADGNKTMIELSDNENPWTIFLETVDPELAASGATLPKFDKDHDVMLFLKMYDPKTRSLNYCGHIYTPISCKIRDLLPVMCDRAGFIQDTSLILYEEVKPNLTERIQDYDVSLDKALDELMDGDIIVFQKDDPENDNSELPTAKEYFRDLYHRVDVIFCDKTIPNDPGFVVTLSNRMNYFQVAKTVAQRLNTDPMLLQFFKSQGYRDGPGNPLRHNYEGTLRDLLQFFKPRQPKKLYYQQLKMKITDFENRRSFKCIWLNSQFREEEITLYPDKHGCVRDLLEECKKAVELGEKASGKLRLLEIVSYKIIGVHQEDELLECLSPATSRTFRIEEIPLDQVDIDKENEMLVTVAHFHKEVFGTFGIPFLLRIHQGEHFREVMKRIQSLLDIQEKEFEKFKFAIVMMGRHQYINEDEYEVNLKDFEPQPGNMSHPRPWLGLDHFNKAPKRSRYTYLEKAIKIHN

Assay [3] deals with HDM2, p53 and p21 protein levels in MCF7 cells. Nature of the assay: Immunoblot of HDM2, p53 and p21 protein levels in treated cells. Type of assay: cell-based. To be noted: 16 hours, FIG. 6A. The protocol: MCF7 and MM.1S were grown in RPMI supplemented with 10% Fetal Bovine serum (FBS) and antibiotics. Cells were treated with DMSO or different concentrations of compounds 10 and 11 for 6 (MM1S) or 16 (MCF7) hours in presence or absence of cycloheximide. For the experiments in which cycloheximide was used, cells were treated with compounds for 4 (MM1S) or 14 (MCF7) hours prior to the addition of 50 ug/ml of cycloheximide. At 6 or 16 h time point cells were washed in PBS and lysed in modified RIPA buffer (1% Triton X-100, 1% sodium deoxycholate, 0.1% SDS, 20 mM Tris, 150 mM NaCl, 1 mM EDTA) containing phosphatase inhibitor cocktails 1 and 2 (Sigma), and protease inhibitors. Protein concentrations were quantified using the BCA protein assay kit (Pierce) and samples were probed by immunoblotting using mdm2 (santa cruz sc-965), p53 (cell signaling 9282), p21 (cell signaling 2947), GAPDH (cell signaling 2118), USP7 (cell signaling 4833) antibodies (FIGS. 6A-D).
On the technique in general: In western blotting, separated proteins are transferred to a membrane and probed.

A value given as a limit tells only on which side of the number the result lay.

Usually IC50 stands for the midpoint of a concentration-inhibition curve. Regarding `O=C(Cc1ccccc1)N1CCC(O)(Cn2cnc3cc(Cl)ccc3c2=O)CC1` [Compound 7, 7-Chloro-3-((4-hydroxy-1-(2-phenylacetyl)piperidin-4-yl)methyl)quinazolin-4(3H)-one], the IC50 against USP7 [1] is more than 10 µM. Further, the “Kd (μM)” value on USP7 [2] (0.02 mM protein, 0.2 mM ligand) is recorded as “No binding”.

Usually Kd stands for the concentration at which binding is half-saturated. A low value points to a tighter complex. `CC(CC(=O)N1CCC(O)(Cn2cnc3cc(Cl)ccc3c2=O)CC1)c1ccccc1` (stereo not drawn) [Compound 8, 7-Chloro-3-((4-hydroxy-1-(3-phenylbutanoyl)piperidin-4-yl)methyl)quinazolin-4(3H)-one] registered an IC50 against USP7 [1] of less than 0.2 µM. For the same molecule, on USP7 [2], the “DH” value is -3.9 kcal/mol, the “DS (cal/mol•K)” value turned out to be 13.1 cal/mol•K and the “n (stoichiometry)” value worked out at 2.46. The molecule also showed a Kd on USP7 [2] (0.02 mM protein, 0.2 mM ligand) of 1.84 µM.

In the case of `C[C@@H](CC(=O)N1CCC(O)(Cn2cnc3cc(Cl)ccc3c2=O)CC1)c1ccccc1` [Compound 9, (S)-7-Chloro-3-((4-hydroxy-1-(3-phenylbutanoyl)piperidin-4-yl)methyl)quinazolin-4(3H)-one], the IC50 against USP7 [1] is less than 0.2 µM. Also, on USP7 [2], the “DH” value was -13.5 kcal/mol, the “DS (cal/mol•K)” value is −17.3 cal/mol•K and the “n (stoichiometry)” value was 0.96. Also, the Kd at USP7 [2] (0.02 mM protein, 0.2 mM ligand) came out at 0.797 µM.

In the case of `C[C@H](CC(=O)N1CCC(O)(Cn2cnc3cc(NC(=O)CCN4CCN(C)CC4)ccc3c2=O)CC1)c1ccccc1` [Compound 10, (R)—N-(3-((4-Hydroxy-1-(3-phenylbutanoyl)piperidin-4-yl)methyl)-4-oxo-3,4-dihydroquinazolin-7-yl)-3-(4-methylpiperazin-1-yl)propanamide], the “HDM2, p53 and p21 protein levels” value in assay [3] was “promotes loss HDM2 and accumulation of p53 and p21”. The IC50 against USP7 [1] is less than 0.2 µM. In addition, at USP7 [2], the “DH” value is -15.1 kcal/mol and the “n (stoichiometry)” value is 1.06. The molecule also had a Kd on USP7 [2] (0.02 mM protein, 0.2 mM ligand) of 0.104 µM.

Molecule `Nc1ccc2ncn(CC3(O)CCN(C(=O)CCc4ccccc4)CC3)c(=O)c2c1` [Compound 69] registered an IC50 on USP7 [1] of more than 10 µM.

In the case of `O=c1c2ccc(Cl)cc2ncn1CC1(O)CCN(c2ccccc2)CC1` [Compound 70], the IC50 against USP7 [1] is more than 10 µM.

Take `O=C(c1ccc2c(Cl)c3c(nc2c1)CCCC3)N1CCC(O)(Cn2cnc3cc(Cl)ccc3c2=O)CC1` [Compound 71]: the IC50 at USP7 [1] was more than 10 µM.

Turning to `C[C@H](Cc1ccccc1)C(=O)N1CCC(O)(Cn2cnc3cc(Cl)ccc3c2=O)CC1` [Compound 72], on USP7 [1], the IC50 is 0.2 to 1 µM.

Turning to `C[C@@H](Cc1ccccc1)C(=O)N1CCC(O)(Cn2cnc3cc(Cl)ccc3c2=O)CC1` [Compound 73], at USP7 [1], the IC50 was more than 10 µM.

Molecule `O=C([C@@H]1C[C@H]1c1ccccc1)N1CCC(O)(Cn2cnc3cc(Cl)ccc3c2=O)CC1` [Compound 74] yielded an IC50 against USP7 [1] of more than 10 µM.

Take `O=C([C@H]1C[C@@H]1c1ccccc1)N1CCC(O)(Cn2cnc3cc(Cl)ccc3c2=O)CC1` [Compound 75]: the IC50 against USP7 [1] is more than 10 µM.

`CC(C)(C)C(=O)N1CCC(O)(Cn2cnc3cc(Cl)ccc3c2=O)CC1` [Compound 76] came in with an IC50 at USP7 [1] of more than 10 µM.

With `O=c1c2ccc(Cl)cc2ncn1CC1(O)CCN(c2cccnc2)CC1` [Compound 77], at USP7 [1], the IC50 is more than 10 µM.

Regarding `O=c1c2ccc(Cl)cc2ncn1CC1(O)CCN(c2ccc([N+](=O)[O-])cn2)CC1` [Compound 78], the IC50 against USP7 [1] was more than 10 µM.

In turn, `CN(CC(=O)N1CCC(O)(Cn2cnc3cc(Cl)ccc3c2=O)CC1)c1ccccc1` [Compound 79] came in with an IC50 on USP7 [1] of more than 10 µM.

On to `CCN(CC(=O)N1CCC(O)(Cn2cnc3cc(Cl)ccc3c2=O)CC1)c1ccccc1` [Compound 80], for which, at USP7 [1], the IC50 was more than 10 µM.

As to `O=C(C1Cc2ccccc2C1)N1CCC(O)(Cn2cnc3cc(Cl)ccc3c2=O)CC1` [Compound 81], at USP7 [1], the IC50 was more than 10 µM.

`O=C(CC(c1ccccc1)c1ccccc1)N1CCC(O)(Cn2cnc3cc(Cl)ccc3c2=O)CC1` [Compound 82] showed an IC50 on USP7 [1] of 1 to 10 µM.

Molecule `O=c1c2ccc(Cl)cc2ncn1CC1(O)CCN(c2cc([N+](=O)[O-])ccn2)CC1` [Compound 83] had an IC50 against USP7 [1] of more than 10 µM.

Consider `O=C(NCCCC(=O)N1CCC(O)(Cn2cnc3cc(Cl)ccc3c2=O)CC1)c1ccc2c(Cl)c3c(nc2c1)CCCC3` [Compound 84], for which, at USP7 [1], the IC50 is 1 to 10 µM.

Molecule `O=C(NCCCn1cnc2cc(Cl)ccc2c1=O)c1ccc2c(Cl)c3c(nc2c1)CCCC3` [Compound 85] had an IC50 against USP7 [1] of more than 10 µM.

The molecule `CC(=O)Nc1ccc2c(=O)n(CC3(O)CCN(C(=O)CC(C)c4ccccc4)CC3)cnc2c1` (stereo not drawn) [Compound 86] showed an IC50 against USP7 [1] of 0.2 to 1 µM.

Turning to `COc1ccccc1CCC(=O)N1CCC(O)(Cn2cnc3cc(Cl)ccc3c2=O)CC1` [Compound 87], the IC50 against USP7 [1] is more than 10 µM.

Turning to `O=C(CC1c2ccccc2-c2ccccc21)N1CCC(O)(Cn2cnc3cc(Cl)ccc3c2=O)CC1` [Compound 88], at USP7 [1], the IC50 is more than 10 µM.

Consider `Cc1cccc(CCC(=O)N2CCC(O)(Cn3cnc4cc(Cl)ccc4c3=O)CC2)c1` [Compound 89], for which the IC50 against USP7 [1] was more than 10 µM.

`CNC(=O)c1ccc2c(Cl)c3c(nc2c1)CCCC3` [Compound 90] came in with an IC50 at USP7 [1] of more than 10 µM.

On USP7 [1], `CC(C)C(Cc1ccccc1)C(=O)N1CCC(O)(Cn2cnc3cc(Cl)ccc3c2=O)CC1` (stereo not drawn) [Compound 91] had an IC50 of 0.2 to 1 µM.

`COC(Cc1ccccc1)C(=O)N1CCC(O)(Cn2cnc3cc(Cl)ccc3c2=O)CC1` (stereo not drawn) [Compound 92] came in with an IC50 at USP7 [1] of 1 to 10 µM.

The molecule `CC(C(=O)N1CCC(O)(Cn2cnc3cc(Cl)ccc3c2=O)CC1)C(C)c1ccccc1` (stereo not drawn) [Compound 93] showed an IC50 against USP7 [1] of 1 to 10 µM.

As to `CCC(Cc1ccccc1)C(=O)N1CCC(O)(Cn2cnc3cc(Cl)ccc3c2=O)CC1` (stereo not drawn) [Compound 94], on USP7 [1], the IC50 lay in the range of 1 to 10 µM.

Turning to `O=C(C(Cc1ccccc1)c1ccccc1)N1CCC(O)(Cn2cnc3cc(Cl)ccc3c2=O)CC1` (stereo not drawn) [Compound 95], the IC50 against USP7 [1] is more than 10 µM.

Regarding `O=C(NCC(=O)N1CCC(O)(Cn2cnc3cc(Cl)ccc3c2=O)CC1)c1ccc2c(Cl)c3c(nc2c1)CCCC3` [Compound 96], the IC50 on USP7 [1] was more than 10 µM.

The molecule `O=C(CCc1ccc2c(Cl)c3c(nc2c1)CCCC3)NCCC(=O)N1CCC(O)(Cn2cnc3cc(Cl)ccc3c2=O)CC1` [Compound 97] came in with an IC50 on USP7 [1] of more than 10 µM.

At USP7 [1], `O=C(NCCCCC(=O)N1CCC(O)(Cn2cnc3cc(Cl)ccc3c2=O)CC1)c1ccc2c(Cl)c3c(nc2c1)CCCC3` [Compound 98] showed an IC50 of 0.2 to 1 µM.

At USP7 [1], `O=C(N[C@@H](Cc1ccccc1)C(=O)N1CCC(O)(Cn2cnc3cc(Cl)ccc3c2=O)CC1)c1ccc2c(Cl)c3c(nc2c1)CCCC3` [Compound 99] returned an IC50 of 1 to 10 µM.

`O=C(NCCCC(=O)N1CCC(Cn2cnc3cc(Cl)ccc3c2=O)CC1)c1ccc2c(Cl)c3c(nc2c1)CCCC3` [Compound 100] registered an IC50 on USP7 [1] of more than 10 µM.

`C[C@H](CC(=O)N1CCC(O)(Cn2cnc3cc(N)ccc3c2=O)CC1)c1ccccc1` [Compound 101] had an IC50 against USP7 [1] of 0.2 to 1 µM.

The molecule `CC(=O)Nc1ccc2c(=O)n(CC3(O)CCN(C(=O)C[C@@H](C)c4ccccc4)CC3)cnc2c1` [Compound 102] gave an IC50 at USP7 [1] of 0.2 to 1 µM.

`C[C@H](CC(=O)N1CCC(O)(Cn2cnc3c(N)cccc3c2=O)CC1)c1ccccc1` [Compound 103]: at USP7 [1], the IC50 was in the range of 1 to 10 µM.

Consider `CC(C)(C)C(=O)Nc1ccc2c(=O)n(CC3(O)CCN(C(=O)CCc4ccccc4)CC3)cnc2c1` [Compound 105], for which the IC50 against USP7 [1] was more than 10 µM.

For the molecule `O=C(CCc1ccccc1)N1CCC(O)(Cn2cnc3cc(Cl)ccc3c2=O)CC1` [Compound A, reference compound], on USP7 [2], the “DH” value was -5.4 kcal/mol, the “DS (cal/mol•K)” value is 5.3 cal/mol•K and the “n (stoichiometry)” value is listed as 0.98. Moreover, on USP7 [2] (0.02 mM protein, 0.2 mM ligand), the Kd was 7.61 µM.
